Results: ChEMBL document CHEMBL1155072, “Urotensin-II receptor antagonists: synthesis and SAR of N-cyclic azaalkyl benzamides” (Bioorg Med Chem Lett, 2008)

What was measured:
Urotensin-2 receptor [1] = target: T1, Urotensin-2 receptor (Homo sapiens, UniProt Q9UKP6); assay: Displacement of [I125]hU2 from human recombinant urotensin 2 receptor expressed in HEK293 cells; type: cell-based
T1 sequence (Q9UKP6 whole entry): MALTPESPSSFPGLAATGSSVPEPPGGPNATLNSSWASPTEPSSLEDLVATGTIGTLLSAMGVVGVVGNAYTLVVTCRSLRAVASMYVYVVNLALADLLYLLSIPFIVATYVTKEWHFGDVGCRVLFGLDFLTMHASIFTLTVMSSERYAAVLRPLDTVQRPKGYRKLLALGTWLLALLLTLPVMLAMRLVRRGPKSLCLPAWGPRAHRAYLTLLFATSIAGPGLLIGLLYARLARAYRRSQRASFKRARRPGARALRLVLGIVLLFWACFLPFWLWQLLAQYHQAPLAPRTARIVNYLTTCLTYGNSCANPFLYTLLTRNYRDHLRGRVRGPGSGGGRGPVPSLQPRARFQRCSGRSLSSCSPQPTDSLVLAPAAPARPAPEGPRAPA

Urotensin-2 receptor [2] = target: T1, Urotensin-2 receptor; assay: Antagonist activity at human recombinant urotensin 2 receptor expressed in HEK293 cells assessed as inhibition of urotensin 2-induced calcium mobilization by FLIPR assay; type: functional, cell-based
[3] = target: T2, 5-hydroxytryptamine receptor 1A (Homo sapiens, UniProt P08908); assay: Binding affinity to 5HT1A receptor
T2 sequence (P08908 whole entry): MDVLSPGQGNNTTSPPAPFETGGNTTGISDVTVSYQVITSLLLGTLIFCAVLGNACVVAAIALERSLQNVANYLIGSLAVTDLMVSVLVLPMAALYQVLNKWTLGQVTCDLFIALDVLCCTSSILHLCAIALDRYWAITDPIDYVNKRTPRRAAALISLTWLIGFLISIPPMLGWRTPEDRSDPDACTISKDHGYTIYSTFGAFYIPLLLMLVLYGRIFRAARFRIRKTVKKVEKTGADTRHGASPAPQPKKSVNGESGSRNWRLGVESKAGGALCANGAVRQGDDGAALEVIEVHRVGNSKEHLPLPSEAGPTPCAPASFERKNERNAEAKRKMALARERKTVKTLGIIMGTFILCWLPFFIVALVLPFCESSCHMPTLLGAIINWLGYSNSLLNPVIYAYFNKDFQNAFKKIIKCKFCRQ

[4] = target: Beta-2 adrenergic receptor (Homo sapiens, UniProt P07550); assay: Binding affinity to beta 2 adrenergic receptor
Chain of Beta-2 adrenergic receptor (P07550 whole entry): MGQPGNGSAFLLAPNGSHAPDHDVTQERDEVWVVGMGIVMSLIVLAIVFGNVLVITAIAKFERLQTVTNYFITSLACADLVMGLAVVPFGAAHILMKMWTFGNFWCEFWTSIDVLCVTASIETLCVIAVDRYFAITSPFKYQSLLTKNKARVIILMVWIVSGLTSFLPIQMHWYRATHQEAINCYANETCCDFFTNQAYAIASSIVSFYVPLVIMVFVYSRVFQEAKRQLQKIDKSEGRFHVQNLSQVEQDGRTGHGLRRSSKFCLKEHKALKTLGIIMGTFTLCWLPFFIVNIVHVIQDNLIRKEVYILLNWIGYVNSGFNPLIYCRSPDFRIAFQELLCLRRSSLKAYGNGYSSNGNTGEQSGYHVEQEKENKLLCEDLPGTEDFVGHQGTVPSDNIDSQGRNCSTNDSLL

[5] = target: Cytochrome P450 3A4 (Homo sapiens) (UniProt P08684); assay: Inhibition of CYP3A4
Chain of Cytochrome P450 3A4 (Homo sapiens) (P08684 whole entry, looked up): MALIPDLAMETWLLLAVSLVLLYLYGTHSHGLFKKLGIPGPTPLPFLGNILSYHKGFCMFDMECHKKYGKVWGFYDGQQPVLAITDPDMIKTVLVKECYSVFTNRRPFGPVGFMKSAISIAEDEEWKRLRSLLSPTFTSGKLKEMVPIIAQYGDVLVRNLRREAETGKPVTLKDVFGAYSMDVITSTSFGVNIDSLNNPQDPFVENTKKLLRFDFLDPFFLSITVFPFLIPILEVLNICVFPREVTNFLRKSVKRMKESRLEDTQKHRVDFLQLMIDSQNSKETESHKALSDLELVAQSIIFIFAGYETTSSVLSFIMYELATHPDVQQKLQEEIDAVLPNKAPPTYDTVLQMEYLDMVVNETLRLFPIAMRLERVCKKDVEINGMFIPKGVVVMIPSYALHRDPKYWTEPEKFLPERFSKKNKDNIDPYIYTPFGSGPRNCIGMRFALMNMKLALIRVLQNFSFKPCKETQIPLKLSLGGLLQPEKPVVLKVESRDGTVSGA

[6] = target: 5-hydroxytryptamine receptor 6 (Homo sapiens, UniProt P50406); assay: Binding affinity to 5HT6 receptor
Chain of 5-hydroxytryptamine receptor 6 (P50406 whole entry): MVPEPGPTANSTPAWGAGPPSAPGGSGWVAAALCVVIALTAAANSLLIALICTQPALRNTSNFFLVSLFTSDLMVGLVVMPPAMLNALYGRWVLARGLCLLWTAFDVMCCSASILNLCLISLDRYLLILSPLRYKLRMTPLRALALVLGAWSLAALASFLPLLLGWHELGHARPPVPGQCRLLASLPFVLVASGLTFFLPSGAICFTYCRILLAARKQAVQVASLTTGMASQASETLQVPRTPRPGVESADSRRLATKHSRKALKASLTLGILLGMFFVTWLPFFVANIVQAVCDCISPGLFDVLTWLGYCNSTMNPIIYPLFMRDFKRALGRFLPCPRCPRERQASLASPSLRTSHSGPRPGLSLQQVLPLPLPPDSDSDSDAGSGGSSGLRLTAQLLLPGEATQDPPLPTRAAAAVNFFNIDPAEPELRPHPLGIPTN

[7] = target: 5-hydroxytryptamine receptor 1D (Homo sapiens, UniProt P28221); assay: Binding affinity to 5HT1D receptor
Chain of 5-hydroxytryptamine receptor 1D (P28221 whole entry): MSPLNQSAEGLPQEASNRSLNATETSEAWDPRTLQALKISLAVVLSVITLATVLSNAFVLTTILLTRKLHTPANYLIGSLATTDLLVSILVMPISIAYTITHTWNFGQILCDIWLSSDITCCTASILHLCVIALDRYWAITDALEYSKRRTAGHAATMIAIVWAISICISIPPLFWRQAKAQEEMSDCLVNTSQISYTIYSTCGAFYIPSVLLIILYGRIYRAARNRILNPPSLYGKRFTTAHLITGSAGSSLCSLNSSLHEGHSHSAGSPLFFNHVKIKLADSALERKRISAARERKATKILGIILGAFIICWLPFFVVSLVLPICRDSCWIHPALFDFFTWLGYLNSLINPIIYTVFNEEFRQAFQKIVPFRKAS

[8] = target: 5-hydroxytryptamine receptor 1E (Homo sapiens, UniProt P28566); assay: Binding affinity to 5HT1E receptor
Chain of 5-hydroxytryptamine receptor 1E (P28566 whole entry): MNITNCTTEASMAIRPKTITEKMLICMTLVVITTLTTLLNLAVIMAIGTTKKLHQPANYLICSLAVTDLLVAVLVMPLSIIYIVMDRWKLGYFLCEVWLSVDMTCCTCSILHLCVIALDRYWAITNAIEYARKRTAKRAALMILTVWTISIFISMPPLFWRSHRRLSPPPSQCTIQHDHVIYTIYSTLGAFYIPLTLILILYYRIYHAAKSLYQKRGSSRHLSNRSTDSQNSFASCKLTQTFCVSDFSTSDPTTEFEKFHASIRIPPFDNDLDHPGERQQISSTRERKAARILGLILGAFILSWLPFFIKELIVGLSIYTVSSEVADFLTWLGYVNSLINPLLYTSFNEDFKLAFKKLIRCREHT

Cytochrome P450 2D6 = Cytochrome P450 2D6 (Homo sapiens, UniProt P10635); assay: Inhibition of CYP2D6; type: ADME
Chain of Cytochrome P450 2D6 (P10635 whole entry): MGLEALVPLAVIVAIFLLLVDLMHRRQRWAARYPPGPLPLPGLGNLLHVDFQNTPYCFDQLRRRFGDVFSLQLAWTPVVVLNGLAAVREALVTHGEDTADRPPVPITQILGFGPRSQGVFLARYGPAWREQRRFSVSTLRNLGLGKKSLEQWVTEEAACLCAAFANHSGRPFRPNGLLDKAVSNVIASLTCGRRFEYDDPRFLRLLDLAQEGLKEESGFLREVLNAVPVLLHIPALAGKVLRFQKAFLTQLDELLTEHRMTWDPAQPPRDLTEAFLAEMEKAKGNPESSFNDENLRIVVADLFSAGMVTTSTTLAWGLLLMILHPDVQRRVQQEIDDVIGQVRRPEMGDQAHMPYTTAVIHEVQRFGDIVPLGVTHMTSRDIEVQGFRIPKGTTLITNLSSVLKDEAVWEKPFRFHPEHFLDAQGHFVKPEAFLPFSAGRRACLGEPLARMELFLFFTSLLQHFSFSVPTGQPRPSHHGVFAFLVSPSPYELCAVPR

[9] = target: T3, 5-hydroxytryptamine receptor 1F (Homo sapiens, UniProt P30939); assay: Binding affinity to 5HT1F receptor
T3 sequence (P30939 whole entry): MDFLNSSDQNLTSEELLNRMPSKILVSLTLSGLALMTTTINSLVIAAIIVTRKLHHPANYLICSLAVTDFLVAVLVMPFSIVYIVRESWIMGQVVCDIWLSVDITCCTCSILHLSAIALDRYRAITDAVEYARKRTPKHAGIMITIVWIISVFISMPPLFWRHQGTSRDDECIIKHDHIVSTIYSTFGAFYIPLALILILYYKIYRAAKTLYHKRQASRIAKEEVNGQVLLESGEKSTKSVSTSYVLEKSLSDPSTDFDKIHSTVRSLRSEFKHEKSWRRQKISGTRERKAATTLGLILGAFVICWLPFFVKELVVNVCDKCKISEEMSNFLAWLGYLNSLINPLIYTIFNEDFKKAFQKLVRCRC

[10] = target: 5-hydroxytryptamine receptor 2B (Homo sapiens, UniProt P41595); assay: Binding affinity at 5HT2B receptor
Chain of 5-hydroxytryptamine receptor 2B (P41595 whole entry): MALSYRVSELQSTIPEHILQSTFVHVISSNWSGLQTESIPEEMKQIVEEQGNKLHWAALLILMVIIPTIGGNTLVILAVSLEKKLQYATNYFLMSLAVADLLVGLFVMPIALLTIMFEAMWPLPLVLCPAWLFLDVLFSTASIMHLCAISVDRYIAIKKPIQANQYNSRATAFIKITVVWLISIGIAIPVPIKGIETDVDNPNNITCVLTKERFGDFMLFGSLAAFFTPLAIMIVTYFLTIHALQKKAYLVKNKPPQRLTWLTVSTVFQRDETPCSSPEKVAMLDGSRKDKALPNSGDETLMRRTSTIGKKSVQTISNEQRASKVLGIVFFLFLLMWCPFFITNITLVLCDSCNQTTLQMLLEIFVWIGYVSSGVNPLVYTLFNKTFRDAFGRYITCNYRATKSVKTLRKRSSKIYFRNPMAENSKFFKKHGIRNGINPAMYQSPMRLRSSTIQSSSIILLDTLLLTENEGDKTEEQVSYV

D(2) dopamine receptor = D(2) dopamine receptor (Homo sapiens, UniProt P14416); assay: Binding affinity to dopamine D2 receptor
Chain of D(2) dopamine receptor (P14416 whole entry): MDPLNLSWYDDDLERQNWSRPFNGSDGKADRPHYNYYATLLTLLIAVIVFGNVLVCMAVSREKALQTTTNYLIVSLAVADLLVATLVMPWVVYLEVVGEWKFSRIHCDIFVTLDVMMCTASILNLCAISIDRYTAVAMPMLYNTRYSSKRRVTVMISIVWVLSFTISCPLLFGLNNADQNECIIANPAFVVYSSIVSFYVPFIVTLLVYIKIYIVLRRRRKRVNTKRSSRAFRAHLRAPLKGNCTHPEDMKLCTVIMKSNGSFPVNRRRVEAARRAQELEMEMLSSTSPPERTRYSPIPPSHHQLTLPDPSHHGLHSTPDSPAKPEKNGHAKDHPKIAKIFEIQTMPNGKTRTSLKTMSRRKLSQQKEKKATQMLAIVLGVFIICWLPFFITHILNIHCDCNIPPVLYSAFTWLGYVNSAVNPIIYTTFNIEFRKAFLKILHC

[11] = target: T4, 5-hydroxytryptamine receptor 2C (Homo sapiens, UniProt P28335); assay: Binding affinity at 5HT2C receptor
T4 sequence (P28335 whole entry): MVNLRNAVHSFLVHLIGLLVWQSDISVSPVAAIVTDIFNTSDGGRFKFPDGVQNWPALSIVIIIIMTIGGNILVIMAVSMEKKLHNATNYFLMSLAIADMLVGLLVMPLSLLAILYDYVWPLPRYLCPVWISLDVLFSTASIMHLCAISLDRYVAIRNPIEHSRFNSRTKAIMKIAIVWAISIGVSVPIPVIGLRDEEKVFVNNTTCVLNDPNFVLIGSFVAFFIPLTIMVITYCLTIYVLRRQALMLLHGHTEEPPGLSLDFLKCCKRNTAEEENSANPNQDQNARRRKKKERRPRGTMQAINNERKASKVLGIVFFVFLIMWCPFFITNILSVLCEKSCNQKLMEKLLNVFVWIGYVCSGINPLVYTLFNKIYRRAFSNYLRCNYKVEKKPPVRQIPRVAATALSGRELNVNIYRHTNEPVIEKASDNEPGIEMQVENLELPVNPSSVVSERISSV

SMILES	Ki (Urotensin-2 receptor [1]) [nM]	other results
CC(C)C[C@H](NC(=O)c1cc2ccccc2s1)C(=O)N[C@H]1CCN(Cc2ccc(OCCCN(C)C)cc2)C1	110	–
CN(C)CCCOc1ccc(CN2CC[C@H](NC(=O)c3ccc(Cl)c(Cl)c3)C2)cc1	–	IC50 (Urotensin-2 receptor [2]): 170 nM
CN(C)CCCOc1cccc(CN2CC[C@H](NC(=O)c3ccc(Cl)c(Cl)c3)C2)c1	> 3000	–
O=C(N[C@H]1CCN(Cc2ccc(OC3CCN(Cc4ccccc4)CC3)c(Br)c2)C1)c1ccc(Cl)c(Cl)c1	230	–
O=C(N[C@H]1CCN(CCc2ccc(OC3CCNCC3)c(Br)c2)C1)c1ccc(Cl)c(Cl)c1	10	–
O=C(N[C@H]1CCN(CCc2ccc(OC3CCNCC3)cc2)C1)c1ccc(Cl)c(Cl)c1	42	–
CN(C)CCCOc1ccc(CN2CC[C@@H](NC(=O)c3ccc(Br)cc3)C2)cc1	350	–
CN(C)CCCOc1ccc(CN2CC[C@H](NC(=O)c3ccc(Cl)c(Cl)c3)C2)cc1Br	61	–
CN(C)CCCOc1ccc(CN2CCC(NC(=O)c3ccc(Cl)c(Cl)c3)CC2)cc1	500	–
CN(C)CCCOc1ccc(CN(C)CCCNC(=O)c2ccc(Cl)c(Cl)c2)cc1	> 10000	–
O=C(N[C@H]1CCN(CCc2ccc(OC3CCNCC3)c(F)c2)C1)c1ccc(Cl)c(Cl)c1	62	–
O=C(N[C@H]1CCN(Cc2ccc(OCCN3CCOCC3)c(Br)c2)C1)c1ccc(Cl)c(Cl)c1	3500	–
O=C(NC1CCN(S(=O)(=O)c2ccc(OC3CCNCC3)c(Br)c2)CC1)c1ccc(Cl)c(Cl)c1	140	–
CN(C)CCCOc1ccc(CN2CCN(C(=O)c3ccc(Cl)c(Cl)c3)CC2)cc1	> 10000	–
O=C(N[C@H]1CCN(CCc2ccc(OC3CCNCC3)c(Cl)c2)C1)c1ccc(Cl)c(Cl)c1	15	–
CN1CCC(Oc2ccc(CN3CC[C@H](NC(=O)c4ccc(Cl)c(Cl)c4)C3)cc2Cl)C1 (mixture of isomers)	47	–
CN1CCC(Oc2ccc(CN3CCC(NC(=O)c4ccc(Cl)c(Cl)c4)C3)cc2Br)C1 (racemic)	41	–

Continued, in another order:

Ki (Urotensin-2 receptor [1]) [nM]	SMILES	other results
320	CN(C)CCCOc1ccc(CN2CC[C@H](NC(=O)c3ccc(Br)cc3)C2)cc1	–
3	CC(C)C[C@H](NC(=O)c1cc2ccccc2s1)C(=O)N[C@H]1CCN(Cc2ccc(OC3CCNCC3)c(Br)c2)C1	–
> 10000	CN(C)CCCOc1ccccc1CN1CC[C@H](NC(=O)c2ccc(Cl)c(Cl)c2)C1	–
1000	O=C(N[C@H]1CCN(Cc2ccc(OCCN3CCCC3)c(Br)c2)C1)c1ccc(Cl)c(Cl)c1	–
380	O=C(N[C@@H]1CCN(S(=O)(=O)c2ccc(OC3CCNCC3)c(Br)c2)C1)c1ccc(Cl)c(Cl)c1	–
69	O=C(N[C@H]1CCN(CCc2ccc(OC3CCNCC3)c([N+](=O)[O-])c2)C1)c1ccc(Cl)c(Cl)c1	–
1500	O=C(N[C@H]1CCN(Cc2ccc(OCCN3CCNCC3)c(Br)c2)C1)c1ccc(Cl)c(Cl)c1	–
5.5	O=C(N[C@H]1CCN(Cc2ccc(O[C@@H]3CCNC3)c(Br)c2)C1)c1ccc(Cl)c(Cl)c1	–
4	O=C(N[C@H]1CCN(Cc2ccc(OC3CCNCC3)c(Br)c2)C1)c1ccc(Cl)c(Cl)c1	Ki [3]: 38 nM; Ki [4]: > 10000 nM; IC50 [5]: 1900 nM; Ki [6]: 4100 nM; IC50 (Urotensin-2 receptor [2]): 4 nM; Ki [7]: 140 nM; Ki [8]: > 10000 nM; IC50 (Cytochrome P450 2D6): 2200 nM; Ki [9]: 7200 nM; Ki [10]: 140 nM; Ki (D(2) dopamine receptor): 100 nM; Ki [11]: 85 nM
12	CC(C)C[C@H](NC(=O)c1cc2ccccc2s1)C(=O)N[C@H]1CCN(S(=O)(=O)c2ccc(OC3CCNCC3)c(Br)c2)C1	–
44	O=C(N[C@H]1CCN(Cc2ccc(O[C@H]3CCNC3)c(Br)c2)C1)c1ccc(Cl)c(Cl)c1	–
18	CC(C)C[C@H](NC(=O)c1cc2ccccc2s1)C(=O)N[C@H]1CCN(CCc2ccc(O[C@@H]3CCNC3)c(Br)c2)C1	–
120	O=C(N[C@H]1CCN(S(=O)(=O)c2ccc(OC3CCNCC3)c(Br)c2)C1)c1ccc(Cl)c(Cl)c1	–
36	COc1cc(CCN2CC[C@H](NC(=O)c3ccc(Cl)c(Cl)c3)C2)ccc1OC1CCNCC1	–
108	Cc1cc(CN2CC[C@H](NC(=O)c3ccc(Cl)c(Cl)c3)C2)ccc1OC1CCN(C)C1 (mixture of isomers)	–
97	CN1CCC(Oc2ccc(CN3CCC(NC(=O)c4ccc(Cl)c(Cl)c4)C3)cc2)C1 (racemic)	–
71	O=C(NC1CCCCN(S(=O)(=O)c2ccc(OC3CCNCC3)c(Br)c2)C1)c1ccc(Cl)c(Cl)c1 (racemic)	–
